# Test results as given in patent US6670399B2, “Compounds and methods for modulating cerebral amyloid angiopathy” (Neurochem (International) Limited, priority 1999, dated 2003).
# System: hAPP transgenic mice
# Test: Extent of CAA in brain sections of hAPP transgenic mice after 8 weeks of treatment, Thioflavin S staining
# Type: in vivo
# Settings: for # of animals with CAA: nine week old hAPP transgenic mice
# Description: The ability of compounds of the invention to inhibit CAA was measured in the following example. Nine week old hAPP transgenic mice were treated for a period of 8 weeks with two different concentrations of a compound of the present invention, 3-amino-1-propanesulfonic acid, sodium salt, 100 and 30 mg/kg. Mice were administered the compound for 8 weeks, after which they were sacrificed and their brains were perfused and processed for histological staining with Thioflavin S. This method may also be used as a screening method for determining activity of a candidate compound for inhibiting CAA.
# The extent of CAA in brain sections obtained from these animals was qualitatively determined following staining.
# [1] = 100 mg/kg (printed 100 mg · kg), hAPP transgenic mice
# [2] = 100 and 30 mg/kg, hAPP transgenic mice, versus vehicle
smiles,measurement,setting,value
"NCCCS(=O)(=O)[O-].[Na+] [3-amino-1-propanesulfonic acid, sodium salt]","CAA Severity + (slight deposition), animals with grade/animals with CAA","30 mg/kg, hAPP transgenic mice",6/10
same,"CAA Severity ++ (moderate deposition), animals with grade/animals with CAA","30 mg/kg, hAPP transgenic mice",4/10
same,CAA animals/total animals,"30 mg/kg, hAPP transgenic mice",10/11
same,# of animals with CAA,"30 mg/kg, 11 animals in study",10
same,"CAA Severity + (slight deposition), animals with grade/animals with CAA",[1],9/10
same,"CAA Severity +++ (severe deposition), animals with grade/animals with CAA",[1],1/10
same,CAA animals/total animals,[1],10/15
same,# of animals with CAA,"100 mg/kg (printed 100 mg · kg), 15 animals in study",10
same,effect on the severity of the deposition seen in the brain vasculature,[2],showing an effect
same,reducing the number of mice showing CAA,[2],effective
